Measured values from patent US7250410B2, “Cyclic nucleotide phosphodiesterase inhibitors, preparation and uses thereof” (Via Pharmaceuticals, Inc., priority 2001, dated 2007).

The molecules below were run against PDE4 (assay: Inhibition of PDE4, radioenzymatic phosphodiesterase assay). Conditions: Table 1, formula (III); 1 μM cyclic AMP.
Type: biochemical, bovine
Description: A 3 g segment of bovine aortic media cut into pieces with scissors was homogenized with an ultra-turrax then a potter glass/glass homogenizer in 7 volumes by weight of buffer A containing a protease inhibitor cocktail (20 mM Tris-HCl, 0.25 M saccharose, 2 mM magnesium acetate, 1 mM dithiothreitol, 5 mM EGTA, 2000 U/ml aprotinin, 10 mg/l leupeptin and 10 mg/l soya trypsic inhibitor). The homogenizate was centrifuged at 105,000 g for 1 hour. […] The column was washed until there was no detectable absorption at 280 nm, then eluted with a linear gradient of NaCl (0–0.5 M) in buffer B. 3-ml fractions were collected and enzyme activity was determined under the conditions described hereinafter to localize the different enzymes PDE1, PDE3, PDE4 and PDE5, which were aliquoted and frozen at −80° C.
The nucleoside formed was separated from the nucleotides by anion exchange chromatography. Nucleoside radioactivity was determined by liquid scintillation counting.

Question: How did the IC50 turn out when `COc1cccc(-c2ccc(C3=NN(C)C(=O)Cc4cc(OC)c(OC)cc43)cc2)c1` [IIIaj, 7,8-dimethoxy-1-[4-(3-methoxyphenyl)phenyl]-3-methyl-3,5-dihydro-4H-2,3-benzodiazepin-4-one] was run?
Answer: Its IC50 is 2.7 µM.

Question: For `COc1cc2c(cc1OC)C(c1ccc(-c3ccc(C(C)=O)cc3)cc1)=NN(C)C(=O)C2` [IIIal, 1-[4-(4-acetylphenyl)phenyl]-7,8-dimethoxy-3-methyl-3,5-dihydro-4H-2,3-benzodiazepin-4-one], which IC50 is on record?
Answer: Its IC50 is 2.4 µM.

Question: For `COc1cc2c(cc1OC)C(c1ccc(-c3cccc(C(C)=O)c3)cc1)=NN(C)C(=O)C2` [IIIak, 1-[4-(3-acetylphenyl)phenyl]-7,8-dimethoxy-3-methyl-3,5-dihydro-4H-2,3-benzodiazepin-4-one], which IC50 is on record?
Answer: Its IC50 is 1.8 µM.

Question: `COc1cc2c(cc1OC)C(c1ccc(-c3ccccc3OC)cc1)=NN(C)C(=O)C2` [IIIai, 7,8-dimethoxy-1-[4-(2-methoxyphenyl)phenyl]-3-methyl-3,5-dihydro-4H-2,3-benzodiazepin-4-one] was tested. Which IC50 did it give?
Answer: The IC50 was 1.8 µM.

Same assay, conditions: Table 1, formula (III); compound at 10 μM

Question: `COc1cc2c(cc1OC)C(c1ccccc1)=NN(Cc1ccccc1)C(=O)C2` [IIIac, 3-benzyl-7,8-dimethoxy-1-phenyl-3,5-dihydro-4H-2,3-benzodiazepin-4-one] was tested. Which “PDE4 percentage inhibition at 10 μM” value did it give?
Answer: Its value is 33%.

Same assay, conditions: Table 2, formula (XXII); 1 μM cyclic AMP

Question: For `COc1cc2c(cc1OC)C(c1ccc(Br)cc1)=NCC(=O)N2` [XXIIaf, 5-(4-bromophenyl)-7,8-dimethoxy-1,3-dihydro-2H-1,4-benzodiazepin-2-one], which IC50 is on record?
Answer: Its IC50 is 15 µM.

Same assay, conditions: Table 2, formula (XXII); compound at 10 μM

Question: With `CCOc1cc2c(cc1OC)NC(=O)CN=C2c1ccccc1` [XXIIbc, 5-phenyl-7-ethoxy-8-methoxy-1,3-dihydro-2H-1,4-benzodiazepin-2-one] as the molecule, how does the “PDE4 percentage inhibition at 10 μM” value read?
Answer: Its value is 10%.

Question: With `COc1cc2c(cc1OC)C(c1ccccc1)=NC(Cc1ccccc1)C(=O)N2` (centres unmarked) [XXIIap, 3-benzyl-7,8-dimethoxy-5-phenyl-1,3-dihydro-2H-1,4-benzodiazepin-2-one] as the molecule, how does the “PDE4 percentage inhibition at 10 μM” value read?
Answer: Its value is 36.10%.

Question: Which “PDE4 percentage inhibition at 10 μM” value does the source give for `COc1cc2c(cc1OC)C(c1ccccc1)=NC(C)C(=O)N2` (centres unmarked) [XXIIaq, 7,8-dimethoxy-3-methyl-5-phenyl-1,3-dihydro-2H-1,4-benzodiazepin-2-one] here?
Answer: Its value is 26.2%.

Question: `COc1ccc2c(c1)NC(=O)CN=C2c1ccccc1` [XXIIan, 8-methoxy-5-phenyl-1,3-dihydro-2H-1,4-benzodiazepin-2-one] was tested. Which “PDE4 percentage inhibition at 10 μM” value did it give?
Answer: The value was 12.1%.

Same assay, conditions: Table 3, formula (II); 1 μM cyclic AMP

Question: For `CCN1C(=O)C(Cc2ccccc2Cl)N=C(c2ccccc2)c2cc(OC)c(OC)cc21` (centres unmarked) [IIcy, 3-(2-chlorobenzyl)-1-ethyl-7,8-dimethoxy-5-phenyl-1,3-dihydro-2H-1,4-benzodiazepin-2-one], which IC50 is on record?
Answer: The IC50 was 2.8 µM.

Question: `CCN1C(=O)CN=C(c2ccc(-c3ccccc3)cc2)c2cc(OC)c(OC)cc21` [IIbp, 5-(1,1′-biphenyl-4-yl)-1-ethyl-7,8-dimethoxy-1,3-dihydro-2H-1,4-benzodiazepin-2-one] was tested. Which IC50 did it give?
Answer: The IC50 was 5.74 µM.

Question: `COc1cccc(C2=NCC(=O)N(C)c3cc(OC)c(OC)cc32)c1` [IIal, 7,8-dimethoxy-5-(3-methoxyphenyl)-1-methyl-1,3-dihydro-1,4-benzodiazepin-2-one] was tested. Which IC50 did it give?
Answer: Its IC50 is 10 µM.

Question: How did the IC50 turn out when `CCN1C(=O)C(Cc2cccc(C#N)c2)N=C(c2ccccc2)c2cc(OC)c(OC)cc21` (centres unmarked) [IIcp, 3-[(1-ethyl-7,8-dimethoxy-2-oxo-5-phenyl-2,3-dihydro-1H-1,4-benzodiazepin-3-yl)methyl]benzonitrile] was run?
Answer: The IC50 was 9.2 µM.

Question: Which IC50 does the source give for `COc1cc2c(cc1OC)N(C)C(=O)CN=C2c1cccc(-c2ccccc2)c1` [IIay, 5-(1,1′-biphenyl-3-yl)-7,8-dimethoxy-1-methyl-1,3-dihydro-2H-1,4-benzodiazepin-2-one] here?
Answer: The IC50 was 6.6 µM.

Question: How did the IC50 turn out when `COc1cc2c(cc1OC)N(C)C(=O)CN=C2c1ccc2[nH]ccc2c1` [IIan, 5-(5-indolyl)-7,8-dimethoxy-1-methyl-1,3-dihydro-1,4-benzodiazepin-2-one] was run?
Answer: The IC50 was 3.6 µM.

Question: For `CCN1C(=O)C(C(O)(c2ccccc2)c2ccccc2)N=C(c2ccccc2)c2cc(OC)c(OC)cc21` (centres unmarked) [IIby, 7,8-dimethoxy-3-(diphenylhydroxymethyl)-1-ethyl-5-phenyl-1,3-dihydro-2H-1,4-benzodiazepin-2-one], which IC50 is on record?
Answer: Its IC50 is 8.2 µM.

Question: How did the IC50 turn out when `CCN1C(=O)C(Cc2cccc(OC)c2)N=C(c2ccccc2)c2cc(OC)c(OC)cc21` (centres unmarked) [IIdc, 1-ethyl-7,8-dimethoxy-3-(3-methoxybenzyl)-5-phenyl-1,3-dihydro-2H-1,4-benzodiazepin-2-one] was run?
Answer: Its IC50 is 5.1 µM.

Question: Which IC50 does the source give for `COc1cc2c(cc1OC)N(C)C(=O)CN=C2c1cccs1` [IIak, 7,8-dimethoxy-1-methyl-5-(2-thienyl)-1,3-dihydro-1,4-benzodiazepin-2-one] here?
Answer: The IC50 was 16 µM.

Question: With `COc1cc2c(cc1OC)N(C)C(=O)CN=C2c1cccc(Br)c1` [IIax, 5-(3-bromophenyl)-7,8-dimethoxy-1-methyl-1,3-dihydro-2H-1,4-benzodiazepin-2-one] as the molecule, how does the IC50 read?
Answer: The IC50 was 8.2 µM.

Question: How did the IC50 turn out when `COc1cc2c(cc1OC)C(c1ccccc1)=NC(c1ccccc1CCNC(C)=O)C(=O)N2` (centres unmarked) [IIcm, N-[2-(7,8-dimethoxy-2-oxo-5-phenyl-2,3-dihydro-1H-1,4-benzodiazepin-3-yl)benzyl]methylacetamide] was run?
Answer: Its IC50 is 1.9 µM.

Question: Which IC50 does the source give for `CCN1C(=O)C(Cc2cccc(C(F)(F)F)c2)N=C(c2ccccc2)c2cc(OC)c(OC)cc21` (centres unmarked) [IIdb, 1-ethyl-7,8-dimethoxy-5-phenyl-3-[3-(trifluoromethyl)benzyl]-1,3-dihydro-2H-1,4-benzodiazepin-2-one] here?
Answer: Its IC50 is 23 µM.

Question: Which IC50 does the source give for `COc1cc2c(cc1OC)N(C)C(=O)CN=C2c1cc2ccccc2s1` [IIac, 5-(2-benzo[b]thienyl)-7,8-dimethoxy-1-methyl-1,3-dihydro-1,4-benzodiazepin-2-one] here?
Answer: The IC50 was 2.3 µM.

Question: `CCN1C(=O)C(Cc2cccc(C(N)=O)c2)N=C(c2ccccc2)c2cc(OC)c(OC)cc21` (centres unmarked) [IIcs, 3-[(1-ethyl-7,8-dimethoxy-2-oxo-5-phenyl-2,3-dihydro-1H-1,4-benzodiazepin-3-yl)methyl]benzamide] was tested. Which IC50 did it give?
Answer: Its IC50 is 1.25 µM.

Question: Which IC50 does the source give for `CCN1C(=O)CN=C(c2ccc(C#CCNC(=O)OC(C)(C)C)cc2)c2cc(OC)c(OC)cc21` [IIbo, tert-butyl 3-[4-(1-ethyl-7,8-dimethoxy-2-oxo-2,3-dihydro-1H-1,4-benzodiazepin-5-yl)phenyl]prop-2-ynylcarbamate] here?
Answer: The IC50 was 2.92 µM.

Question: For `CCN1C(=O)CN=C(c2ccc(Br)cc2)c2cc(OC)c(OC)cc21` [IIbl, 5-(4-bromophenyl)-1-ethyl-7,8-dimethoxy-1,3-dihydro-2H-1,4-benzodiazepin-2-one], which IC50 is on record?
Answer: Its IC50 is 15 µM.

Same assay, conditions: Table 3, formula (II); compound at 10 μM

Question: `CCN1C(=O)C(C2(O)CCN(Cc3ccccc3)CC2)N=C(c2ccccc2)c2cc(OC)c(OC)cc21` (centres unmarked) [IIcl, 3-(1-benzyl-4-hydroxypiperidin-4-yl)-1-ethyl-7,8-dimethoxy-5-phenyl-1,3-dihydro-2H-1,4-benzodiazepin-2-one] was tested. Which “PDE4 percentage inhibition at 10 μM” value did it give?
Answer: Its value is 4.3%.

Question: How did the “PDE4 percentage inhibition at 10 μM” value turn out when `CCOC(=O)CN1C(=O)CN=C(c2ccccc2)c2cc(OCC)c(OCC)cc21` [IIbi, ethyl (7,8-diethoxy-2-oxo-5-phenyl-2,3-dihydro-1H-1,4-benzodiazepin-1-yl)acetate] was run?
Answer: The value was 23.1%.

Question: Which “PDE4 percentage inhibition at 10 μM” value does the source give for `COc1cc2c(cc1OC)N(C)C(=O)CN=C2c1ccncc1` [IIae, 7,8-dimethoxy-1-methyl-5-(4-pyridyl)-1,3-dihydro-2H-1,4-benzodiazepin-2-one] here?
Answer: The value was 3.4%.

Question: For `C=CCC1N=C(c2ccccc2)c2cc(OC)c(OC)cc2N(CC)C1=O` (centres unmarked) [IIbs, 3-allyl-1-ethyl-7,8-dimethoxy-5-phenyl-1,3-dihydro-2H-1,4-benzodiazepin-2-one], which “PDE4 percentage inhibition at 10 μM” value is on record?
Answer: Its value is 38.8%.

Question: With `CCN1C(=O)C(Cc2ccc(Br)cc2)N=C(c2ccccc2)c2cc(OC)c(OC)cc21` (centres unmarked) [IIcd, 3-(4-bromobenzyl)-1-ethyl-7,8-dimethoxy-5-phenyl-1,3-dihydro-2H-1,4-benzodiazepin-2-one] as the molecule, how does the “PDE4 percentage inhibition at 10 μM” value read?
Answer: The value was 20.1%.

Question: For `COc1cc2c(cc1OC)N(C)C(=O)CN=C2CCc1ccccc1` [IIaz, 7,8-dimethoxy-1-methyl-5-(2-phenylethyl)-1,3-dihydro-2H-1,4-benzodiazepin-2-one], which “PDE4 percentage inhibition at 10 μM” value is on record?
Answer: The value was 6.9%.

Question: Which “PDE4 percentage inhibition at 10 μM” value does the source give for `CCN1C(=O)CN=C(c2cccc(C#Cc3ccccc3)c2)c2cc(OC)c(OC)cc21` [IIbw, 1-ethyl-7,8-dimethoxy-5-[3-(phenylethynyl)phenyl]-1,3-dihydro-2H-1,4-benzodiazepin-2-one] here?
Answer: The value was 46.1%.

Question: How did the “PDE4 percentage inhibition at 10 μM” value turn out when `CCN1C(=O)C(C/C=C/c2ccccc2)N=C(c2ccccc2)c2cc(OC)c(OC)cc21` (centres unmarked) [IIbz, 7,8-dimethoxy-1-ethyl-3-(E-3-phenylpropen-2yl)-5-phenyl-1,3-dihydro-2H-1,4-benzodiazepin-2-one] was run?
Answer: The value was 42.3%.

Question: For `CCN1C(=O)C(C(Cc2ccc(Br)cc2)c2ccc(Br)cc2)N=C(c2ccccc2)c2cc(OC)c(OC)cc21` (centres unmarked) [IIde, 3-[1,2-bis(4-bromophenyl)ethyl]-1-ethyl-7,8-dimethoxy-5-phenyl-1,3-dihydro-2H-1,4-benzodiazepin-2-one], which “PDE4 percentage inhibition at 10 μM” value is on record?
Answer: The value was 0%.

Question: How did the “PDE4 percentage inhibition at 10 μM” value turn out when `COc1cc2c(cc1OC)C(c1ccccc1)=NC(c1ccccc1CNC(C)=O)C(=O)N2` (centres unmarked) [IIcf, N-[2-(7,8-dimethoxy-2-oxo-5-phenyl-2,3-dihydro-1H-1,4-benzodiazepin-3-yl)benzyl]acetamide] was run?
Answer: The value was 21%.

Question: For `CCN1C(=O)C(Cc2cc(Br)cc(Br)c2)N=C(c2ccccc2)c2cc(OC)c(OC)cc21` (centres unmarked) [IIbx, 3-(3,5-dibromobenzyl)-7,8-dimethoxy-1-ethyl-5-phenyl-1,3-dihydro-2H-1,4-benzodiazepin-2-one], which “PDE4 percentage inhibition at 10 μM” value is on record?
Answer: The value was 18%.

Question: With `COc1cc2c(cc1OC)N(Cc1ccccc1)C(=O)CN=C2c1ccccc1` [IIbc, 1-benzyl-7,8-dimethoxy-5-phenyl-1,3-dihydro-2H-1,4-benzodiazepin-2-one] as the molecule, how does the “PDE4 percentage inhibition at 10 μM” value read?
Answer: Its value is 27.2%.
